Data on 22 compounds can be found in patent US20210317092A1 (BAYER PHARMA AKTIENGESELLSCHAFT, priority 2016, published 2021).

The target in assay [1] is T1, human Bradykinin B1 receptor (Homo sapiens, UniProt P46663).
T1 construct: host or cells: CHO-K1
T1 sequence (P46663 1-353): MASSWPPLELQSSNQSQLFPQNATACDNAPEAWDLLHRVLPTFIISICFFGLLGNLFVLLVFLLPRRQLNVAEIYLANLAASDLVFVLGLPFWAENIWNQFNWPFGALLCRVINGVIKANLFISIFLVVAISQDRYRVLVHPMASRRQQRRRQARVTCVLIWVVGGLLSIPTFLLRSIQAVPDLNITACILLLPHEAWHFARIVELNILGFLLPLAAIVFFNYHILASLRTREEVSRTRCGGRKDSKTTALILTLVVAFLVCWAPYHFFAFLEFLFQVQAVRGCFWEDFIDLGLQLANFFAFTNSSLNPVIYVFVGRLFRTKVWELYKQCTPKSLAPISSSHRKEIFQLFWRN
As to the kind of experiment: Calcium flux Assay (FLIPR) with recombinant CHO-K1 cells expressing human Bradykinin B1 receptor, in presence (hB1 IC50) or absence (hB1 free IC50) of 0.1% BSA. Format: cell-based.

Assay [2] addresses T2, native human Bradykinin B1 receptor (Homo sapiens, UniProt P46663).
T2 construct: which express native human Bradykinin B1 receptor after induction with human IL-10; Coriell Institute; host or cells: IMR-90 human foetal lung fibroblasts, cytokine-induced
T2 sequence (P46663 1-353): T1 sequence (P46663 1-353)
Briefly: Calcium flux Assay (FLIPR) with human fibroblasts expressing Bradykinin B1 receptor (hB1 IMR-90). Format: cell-based. As to conditions: IMR-90 human fibroblasts expressing native Bradykinin B1 receptor. The procedure: Calcium flux Assay (FLIPR) with human fibroblasts expressing Bradykinin B1 receptor (hB1 IMR-90)
The Calcium flux Assay was carried out utilising IMR-90 human foetal lung fibroblasts (American Type Culture Collection, Rockville, Md.; and Coriell Institute, Camden, N.J.), which express native human Bradykinin B1 receptor after induction with human […].
The fibroblasts were cultured in complete growth media comprised of Dulbecco's modified Eagle's medium (DMEM; Sigma) containing 10% foetal bovine serum, 4 mM L-glutamine, and 1% nonessential amino acids. The cells were maintained in a humidified atmosphere with 5% CO2 at 37° C. and were sub-cultured at a ratio of 1:3, every other day.
For the assay, IMR-90 fibroblasts were harvested using TrypLE Express (GIBCO/Invitrogen) and seeded into 384-well plates (Corning Cellbinding Surface, Cat. 3683) at a density of 15000 cells/well. The following day, cells were treated with 0.35 ng/mL human […] in 10% FBS/MEM for 3h to up-regulate Bradykinin B1 receptor. Induced cells were loaded with fluorescent calcium indicator by incubation with 2.5 μM Fluo-4/AM (Invitrogen) at 37° C., 5% CO2 for 2 h in the presence of 2.5 mM probenecid in 1% FBS/MEM. Extracellular dye was removed by washing with assay buffer (2.5 mM probenecid and 0.1% BSA in 20 mM HEPES/HBSS without bicarbonate or phenol red, pH 7.5). Compound examples were assayed at 8 concentrations in triplicate. After addition of compound examples to the cell plate and incubation for 30 min at 28° C., the addition of Bradykinin B1 agonist Lys-(Des-Arg)-Bradykinin (Bachem, Brackley) at a final concentration of EC90 was carried out on the FLIPR instrument while continuously monitoring Ca^2+-dependent fluorescence at 538 nm. A peptide antagonist Lys-(Des-Arg-Leu)-Bradykinin (Bachem, Brackley) at 20 µM was used to determine the full inhibition as control. IC50 values were determined by the same way described for the FLIPR assay with recombinant cells.

[3] abbreviates: in absence of 0.1% BSA, read-out: hB1 free IC50.
Where [4] appears, read: in presence of 0.1% BSA, read-out: hB1 IC50.

The structures appear in SMILES notation. pIC50: −log10 of the molar value. Where two headings read alike, the source gives them in different places.

Consider `CCOc1ccc(-c2ccc(NC(=O)C3(c4cc(F)ccc4F)CC3)cc2-c2nnn[nH]2)cn1` [Example 83, 1-(2,5-difluorophenyl)-N-[4-(6-ethoxypyridin-3-yl)-3-(1H-tetrazol-5-yl)phenyl] cyclopropane-carboxamide], for which the results for the pIC50 in assay [1] (setting [3]), in assay [1] (setting [4]) and in assay [2] were 7.22, 7.43 and 7.48, respectively.

On to `CCOc1ccc(-c2ccc(NC(=O)C3(c4ccc(OC)c(F)c4)CC3)cc2-c2nnn[nH]2)cn1` [Example 86, N-[4-(6-ethoxypyridin-3-yl)-3-(1H-tetrazol-5-yl)phenyl]-1-(3-fluoro-4-methoxyphenyl) cyclopropane-carboxamide], for which the pIC50 in assay [1] (setting [3]) was 7.39; in assay [1] (setting [4]), 7.03; in assay [2], 7.56.

On to `CCOc1ccc(-c2ccc(NC(=O)C3(C(F)(F)F)CC3)cc2-c2nnn[nH]2)cn1` [Example 91, N-[4-(6-ethoxypyridin-3-yl)-3-(1H-tetrazol-5-yl)phenyl]-1-(trifluoromethyl) cyclopropane-carboxamide], for which the figures for the pIC50 in assay [1] (setting [3]), in assay [1] (setting [4]) and in assay [2] were 6.34, 6.76 and 6.79, respectively.

Regarding `CCOc1ccc(-c2ccc(NC(=O)C3(c4ccccc4F)CC3)cc2-c2nnn[nH]2)cn1` [Example 92, N-[4-(6-ethoxypyridin-3-yl)-3-(1H-tetrazol-5-yl)phenyl]-1-(2-fluorophenyl) cyclopropane-carboxamide], the pIC50 in assay [1] (setting [3]) was 7.42; in assay [1] (setting [4]), 7.40; in assay [2] it was 7.60.

As to `CCOc1ccc(-c2ccc(NC(=O)C3(c4cccc(C)c4)CC3)cc2-c2nnn[nH]2)cn1` [Example 94, N-[4-(6-ethoxypyridin-3-yl)-3-(1H-tetrazol-5-yl)phenyl]-1-(3-methylphenyl) cyclopropane-carboxamide], the pIC50 was 7.62 in assay [1] (setting [4]) and 7.60 in assay [2].

Turning to `CCCc1cccc(C2(C(=O)Nc3ccc(-c4ccc(OCC)nc4)c(-c4nnn[nH]4)c3)CC2)c1` [Example 96, N-[4-(6-ethoxypyridin-3-yl)-3-(1H-tetrazol-5-yl)phenyl]-1-(3-propylphenyl) cyclopropane-carboxamide], the pIC50 in assay [1] (setting [3]) is 8.27; in assay [1] (setting [4]), 8.18; in assay [2] it was 7.82.

Consider `CCOc1ccc(-c2ccc(NC(=O)C3(c4cccc(C(C)(C)C)c4)CC3)cc2-c2nnn[nH]2)cn1` [Example 97, 1-(3-tert-butylphenyl)-N-[4-(6-ethoxypyridin-3-yl)-3-(1H-tetrazol-5-yl)phenyl] cyclopropane-carboxamide], for which the pIC50 in assay [1] (setting [4]) was 6.86; in assay [2], 7.00.

As for `CCOc1ccc(-c2ccc(NC(=O)C3(c4cccc(C(F)(F)F)c4)CC3)cc2-c2nnn[nH]2)cn1` [Example 98, N-[4-(6-ethoxypyridin-3-yl)-3-(1H-tetrazol-5-yl)phenyl]-1-[3-(trifluoromethyl)phenyl] cyclopropane-carboxamide], the pIC50 is 8.06 in assay [1] (setting [4]) and 8.24 in assay [2].

Consider `CCOc1ccc(-c2ccc(NC(=O)C3(c4ccc(C)cc4)CC3)cc2-c2nnn[nH]2)cn1` [Example 99, N-[4-(6-ethoxypyridin-3-yl)-3-(1H-tetrazol-5-yl)phenyl]-1-(4-methylphenyl) cyclopropane-carboxamide], for which the pIC50 in assay [1] (setting [4]) was 7.62; in assay [2] it was 7.93.

`CCOc1ccc(-c2ccc(NC(=O)C3(c4ccc(Cl)cc4)CC3)cc2-c2nnn[nH]2)cn1` [Example 100, 1-(4-chlorophenyl)-N-[4-(6-ethoxypyridin-3-yl)-3-(1H-tetrazol-5-yl)phenyl] cyclopropane-carboxamide]: the pIC50 in assay [1] (setting [3]) was 8.25; in assay [1] (setting [4]) it was 7.69; in assay [2], 8.05.

Consider `CCOc1ccc(-c2ccc(NC(=O)C3(c4ccc(F)cc4F)CC3)cc2-c2nnn[nH]2)cn1` [Example 101, 1-(2,4-difluorophenyl)-N-[4-(6-ethoxypyridin-3-yl)-3-(1H-tetrazol-5-yl)phenyl] cyclopropane-carboxamide], for which the figures for the pIC50 in assay [1] (setting [3]), in assay [1] (setting [4]) and in assay [2] were 7.61, 7.41 and 7.66, respectively.

Consider `CCOc1ccc(-c2ccc(NC(=O)C3(c4ccc(F)c(C)c4)CC3)cc2-c2nnn[nH]2)cn1` [Example 102, N-[4-(6-ethoxypyridin-3-yl)-3-(1H-tetrazol-5-yl]phenyl]-1-(4-fluoro-3-methylphenyl) cyclopropane-carboxamide], for which the pIC50 is 7.46 in assay [1] (setting [4]) and 7.68 in assay [2].

As for `CCOc1ccc(-c2ccc(NC(=O)C3(c4ccc(C(F)(F)F)cc4)CC3)cc2-c2nnn[nH]2)cn1` [Example 105, N-[4-(6-ethoxypyridin-3-yl)-3-(1H-tetrazol-5-yl)phenyl]-1-[4-(trifluoromethyl)phenyl] cyclopropane-carboxamide], the pIC50 in assay [1] (setting [3]) is 8.34; in assay [1] (setting [4]), 7.96; in assay [2], 7.97.

On to `CCCOc1ccc(-c2ccc(NC(=O)C3(c4cccc(Cl)c4)CC3)cc2-c2nnn[nH]2)cn1` [Example 110, 1-(3-chlorophenyl)-N-[4-(6-propoxypyridin-3-yl)-3-(1H-tetrazol-5-yl)phenyl] cyclopropane-carboxamide], for which the values for the pIC50 in assay [1] (setting [3]), in assay [1] (setting [4]) and in assay [2] were 8.25, 7.90 and 7.96, respectively.

As to `CCCOc1ccc(-c2ccc(NC(=O)C3(c4ccc(C(F)(F)F)cc4)CC3)cc2-c2nnn[nH]2)cn1` [Example 111, N-[4-(6-propoxypyridin-3-yl)-3-(1H-tetrazol-5-yl)phenyl]-1-[4-(trifluoromethyl)phenyl] cyclopropane-carboxamide], the pIC50 in assay [1] (setting [3]) was 8.30; in assay [1] (setting [4]), 7.78; in assay [2], 7.97.

On to `CCCOc1ccc(-c2ccc(NC(=O)C3(c4ccc(F)cc4F)CC3)cc2-c2nnn[nH]2)cn1` [Example 112, 1-(2,4-difluorophenyl)-N-[4-(6-propoxypyridin-3-yl)-3-(1H-tetrazol-5-yl)phenyl] cyclopropane-carboxamide], for which the results for the pIC50 in assay [1] (setting [3]), in assay [1] (setting [4]) and in assay [2] were 7.79, 7.35 and 7.69, respectively.

Consider `CCOc1ccc(-c2ccc(NC(=O)C3(c4cccc(Cl)c4)CC3)cc2-c2nnn[nH]2)cc1OC` [Example 119, 1-(3-chlorophenyl)-N-[4′-ethoxy-3′-methoxy-2-(1H-tetrazol-5-yl)biphenyl-4-yl]cyclopropane carboxamide], for which the pIC50 in assay [1] (setting [3]) was 8.54; in assay [1] (setting [4]), 7.64; in assay [2] it was 7.88.

As to `CCOc1ccc(-c2ccc(NC(=O)C3(c4cccc(C(F)(F)F)c4)CC3)cc2-c2nnn[nH]2)cc1OC` [Example 120, N-[4′-ethoxy-3′-methoxy-2-(1H-tetrazol-5-yl)biphenyl-4-yl]-1-[3-(trifluoromethyl)phenyl] cyclopropane-carboxamide], the pIC50 was 7.51 in assay [1] (setting [4]) and 7.60 in assay [2].

Turning to `CCOc1ccc(-c2ccc(NC(=O)C3(c4ccc(C(F)(F)F)cc4)CC3)cc2-c2nnn[nH]2)cc1OC` [Example 121], the pIC50 in assay [1] (setting [4]) is 7.55; in assay [2] it was 7.71.

For `CCOc1ccc(-c2ccc(NC(=O)C3(c4ccc(F)cc4F)CC3)cc2-c2nnn[nH]2)cc1OC` [Example 122, 1-(2,4-difluorophenyl)-N-[4′-ethoxy-3′-methoxy-2-(1H-tetrazol-5-yl)biphenyl-4-yl]cyclopropane carboxamide], the pIC50 in assay [1] (setting [4]) was 7.25; in assay [2], 7.54.

Turning to `COCc1ccc(-c2ccc(NC(=O)C3(c4cccc(Cl)c4)CC3)cc2-c2nnn[nH]2)cn1` [Example 125, 1-(3-chlorophenyl)-N-{4-[6-(methoxymethyl)pyridin-3-yl]-3-(1H-tetrazol-5-yl)phenyl} cyclopropane-carboxamide], the values for the pIC50 in assay [1] (setting [3]), in assay [1] (setting [4]) and in assay [2] were 7.63, 7.86 and 7.59, respectively.

As to `COCc1ccc(-c2ccc(NC(=O)C3(c4ccc(C(F)(F)F)cc4)CC3)cc2-c2nnn[nH]2)cn1` [Example 126, N-{4-[6-(methoxymethyl)pyridin-3-yl]-3-(1H-tetrazol-5-yl)phenyl}-1-[4-(trifluoromethyl)phenyl] cyclopropane-carboxamide], the pIC50 in assay [1] (setting [4]) was 7.66; in assay [2] it was 7.88.
